Laboratory results reported in patent US20260078130A1, “NAMPT MODULATORS, PREPARATIONS, AND USES THEREOF” (SIRONAX LTD., priority 2022, published 2026).

Biological target: T1, human enzyme NAMPT (full length) (Homo sapiens, UniProt P43490)
T1 construct: human enzyme NAMPT (full length)
Assay: NMN fluorescence biochemical assay (stimulation of NMN synthesis by NAMPT)
Conditions: for EC50: NMN fluorescence assay, purified human NAMPT 100 nM, concentration giving half-maximal activation, read-out: Enzymatic EC50; for Enzymatic Emax: fold change of maximal activation compared to DMSO
Procedure, shortened: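 Full-length human NAMPT (100 nM) was preincubated 15 min at 37 °C with compound in 50 mM Tris-HCl pH 7.5, 10 mM MgCl2, 2 mM DTT, then reacted 1 h at 37 °C with 50 μM NAM, 100 μM PRPP, 4 mM ATP (stated solution concentrations). NMN was derivatised with acetophenone/KOH then formic acid and read at Ex/Em 382/445 nm; EC50 and Emax (fold over DMSO) reported.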

T1 sequence (P43490 whole entry): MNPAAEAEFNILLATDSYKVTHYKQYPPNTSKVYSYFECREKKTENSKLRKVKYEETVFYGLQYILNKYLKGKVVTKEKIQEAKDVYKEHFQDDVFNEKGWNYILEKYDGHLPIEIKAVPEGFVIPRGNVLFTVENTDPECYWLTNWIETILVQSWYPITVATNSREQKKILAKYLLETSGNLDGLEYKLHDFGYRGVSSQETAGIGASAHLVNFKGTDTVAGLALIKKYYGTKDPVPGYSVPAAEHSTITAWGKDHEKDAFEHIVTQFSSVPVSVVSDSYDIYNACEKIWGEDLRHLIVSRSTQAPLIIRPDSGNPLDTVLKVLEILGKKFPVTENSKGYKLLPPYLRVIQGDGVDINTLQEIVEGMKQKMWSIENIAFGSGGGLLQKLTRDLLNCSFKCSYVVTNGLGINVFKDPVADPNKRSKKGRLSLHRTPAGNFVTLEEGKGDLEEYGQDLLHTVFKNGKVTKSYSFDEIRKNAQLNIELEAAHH

SMILES | EC50 | Enzymatic Emax
O=C1c2ccccc2C(Cc2ncccc2Br)N1Cc1ccc2[nH]c(=O)ncc2c1 (stereo not drawn) [Compound 348, 6-((1-((3-bromopyridin-2-yl)methyl)-3-oxoisoindolin-2-yl)methyl)quinazolin-2(1H)-one] | 0.5 to 5 µM | C (2≥C)
Cc1cc(Cl)n(CC2c3ccccc3C(=O)N2Cc2ccc3[nH]nnc3c2)n1 (stereo not drawn) [Compound 355, 2-((1H-benzo[d][1,2,3]triazol-5-yl)methyl)-3-((5-chloro-3-methyl-1H-pyrazol-1-yl)methyl)isoindolin-1-one] | ≥ 5 µM | A (A>3)
Cc1nc2cc(CN3C(=O)c4ccccc4C3Cc3ncccc3Br)ccc2[nH]1 (stereo not drawn) [Compound 358, 3-((3-bromopyridin-2-yl)methyl)-2-((2-methyl-1H-benzo[d]imidazol-5-yl)methyl)isoindolin-1-one] | 0.5 to 5 µM | A (A>3)
O=C1c2ccccc2C(Cc2nn(C(CO)CO)cc2Cl)N1Cc1ccc2[nH]nnc2c1 (stereo not drawn) [Compound 363, 2-((1H-benzo[d][1,2,3]triazol-5-yl)methyl)-3-((4-chloro-1-(1,3-dihydroxypropan-2-yl)-1H-pyrazol-3-yl)methyl)isoindolin-1-one] | 0.5 to 5 µM | B (3≥B>2)
Cc1cnn(C)c1CC1c2ccccc2C(=O)N1Cc1ccc2[nH]nnc2c1 (stereo not drawn) [Compound 365, 2-((1H-benzo[d][1,2,3]triazol-5-yl)methyl)-3-((1,4-dimethyl-1H-pyrazol-5-yl)methyl)isoindolin-1-one] | 0.5 to 5 µM | B (3≥B>2)
N#Cc1nc2cc(CN3C(=O)c4ccccc4C3Cc3ncccc3Br)ccc2[nH]1 (stereo not drawn) [Compound 366, 5-((1-((3-bromopyridin-2-yl)methyl)-3-oxoisoindolin-2-yl)methyl)-1H-benzo[d]imidazole-2-carbonitrile] | 0.5 to 5 µM | C (2≥C)
O=C1c2ccccc2C(Cc2ncccc2Br)N1Cc1ccc2[nH]c(O)nc2c1 (stereo not drawn) [Compound 367, 3-((3-bromopyridin-2-yl)methyl)-2-((2-hydroxy-1H-benzo[d]imidazol-5-yl)methyl)isoindolin-1-one] | ≥ 5 µM | C (2≥C)
Cc1onc(C#N)c1C(O)C1c2ccccc2C(=O)N1Cc1ccc2[nH]nnc2c1 (stereo not drawn) [Compound 374, 4-((2-((1H-benzo[d][1,2,3]triazol-5-yl)methyl)-3-oxoisoindolin-1-yl)(hydroxy)methyl)-5-methylisoxazole-3-carbonitrile] | 0.5 to 5 µM | B (3≥B>2)
Cn1ncc(Cl)c1CC1c2cc(C3CNC3)ccc2C(=O)N1Cc1ccc2[nH]nnc2c1 (stereo not drawn) [Compound 383, 2-((1H-benzo[d][1,2,3]triazol-5-yl)methyl)-5-(azetidin-3-yl)-3-((4-chloro-1-methyl-1H-pyrazol-5-yl)methyl)isoindolin-1-one] | < 0.5 µM | B (3≥B>2)
Cc1[nH]nnc1/C=C/CN1C(=O)c2ccccc2C1Cc1ncccc1Br (stereo not drawn) [Compound 386, (E)-3-((3-bromopyridin-2-yl)methyl)-2-(3-(5-methyl-1H-1,2,3-triazol-4-yl)allyl)isoindolin-1-one] | 0.5 to 5 µM | B (3≥B>2)
COC(C)(C)c1ccc2c(c1)C(Cc1c(Cl)cnn1C)N(Cc1ccc3[nH]nnc3c1)C2=O (stereo not drawn) [Compound 396, 2-((1H-benzo[d][1,2,3]triazol-5-yl)methyl)-3-((4-chloro-1-methyl-1H-pyrazol-5-yl)methyl)-5-(2-methoxypropan-2-yl)isoindolin-1-one] | 0.5 to 5 µM | B (3≥B>2)
O=C1c2ccccc2C(Cc2ncccc2Br)N1[C@H]1C[C@H](c2c[nH]nn2)C1 (stereo partly drawn) [Compound 403, 2-((1r,3r)-3-(1H-1,2,3-triazol-4-yl)cyclobutyl)-3-((3-bromopyridin-2-yl)methyl)isoindolin-1-one] | ≥ 5 µM | C (2≥C)
O=C1CC2(CN1)CC(CN1C(=O)c3ccccc3C1Cc1ncccc1Br)C2 (stereo not drawn) [Compound 424, 3-((3-bromopyridin-2-yl)methyl)-2-((7-oxo-6-azaspiro[3.4]octan-2-yl)methyl) isoindolin-1-one] | ≥ 5 µM | C (2≥C)
O=C1c2ccccc2C(Cc2ncccc2Br)N1Cc1ccc(O)cc1 (stereo not drawn) [Compound 429, 3-((3-bromopyridin-2-yl)methyl)-2-(4-hydroxybenzyl)isoindolin-1-one] | < 0.5 µM | C (2≥C)
Cn1ncc(Cl)c1CC1c2cccc(CC#N)c2C(=O)N1CC1CC2(CNC(=O)O2)C1 (stereo not drawn) [Compound 432, 2-(1-((4-chloro-1-methyl-1H-pyrazol-5-yl)methyl)-3-oxo-2-((6-oxo-5-oxa-7-azaspiro[3.4]octan-2-yl)methyl)isoindolin-4-yl)acetonitrile] | ≥ 5 µM | B (3≥B>2)
COc1cccc2c1C(=O)N(CC1CC3(CNC(=O)O3)C1)C2Cc1c(Cl)cnn1C (stereo not drawn) [Compound 433, 2-((1-((4-chloro-1-methyl-1H-pyrazol-5-yl)methyl)-4-methoxy-3-oxoisoindolin-2-yl)methyl)-5-oxa-7-azaspiro[3.4]octan-6-one] | 0.5 to 5 µM | B (3≥B>2)
Cn1ncc(Cl)c1CC1c2cccc(Br)c2C(=O)N1CC1CC2(CNC(=O)O2)C1 (stereo not drawn) [Compound 434, 2-((4-bromo-1-((4-chloro-1-methyl-1H-pyrazol-5-yl)methyl)-3-oxoisoindolin-2-yl)methyl)-5-oxa-7-azaspiro[3.4]octan-6-one] | 0.5 to 5 µM | B (3≥B>2)
CC(=O)Nc1ncc(CN2C(=O)c3ccccc3C2Cc2ncccc2Br)cn1 (stereo not drawn) [Compound 443, N-(5-((1-((3-bromopyridin-2-yl)methyl)-3-oxoisoindolin-2-yl)methyl)pyrimidin-2-yl)acetamide] | 0.5 to 5 µM | C (2≥C)
Cn1ncc(Cl)c1CC1(C)c2ccccc2C(=O)N1CC1CC2(CNC(=O)O2)C1 (stereo not drawn) [Compound 445, 2-((1-((4-chloro-1-methyl-1H-pyrazol-5-yl)methyl)-1-methyl-3-oxoisoindolin-2-yl)methyl)-5-oxa-7-azaspiro[3.4]octan-6-one] | ≥ 5 µM | B (3≥B>2)
O=C1c2sc(Br)nc2CN1Cc1ccc(O)cc1 [Compound 447, 2-bromo-5-(4-hydroxybenzyl)-4,5-dihydro-6H-pyrrolo[3,4-d]thiazol-6-one] | ≥ 5 µM | B (3≥B>2)
Cn1ncc(Cl)c1CC1c2ccccc2C(=O)N1CC#Cc1c[nH]cn1 (stereo not drawn) [Compound 452, 2-(3-(1H-imidazol-4-yl)prop-2-yn-1-yl)-3-((4-chloro-1-methyl-1H-pyrazol-5-yl)methyl)insoindolin-1-one] | 0.5 to 5 µM | C (2≥C)
Cc1ccnc(C#N)c1CC1c2ccccc2C(=O)N1CC1CCc2[nH]nnc2C1 (stereo not drawn) [Compound 454, 4-methyl-3-((3-oxo-2-((4,5,6,7-tetrahydro-1H-benzo[d][1,2,3]triazol-5-yl)methyl)isoindolin-1-yl)methyl)picolinonitrile] | ≥ 5 µM | C (2≥C)
Cn1ncc(Cl)c1CC1c2ccccc2C(=O)N1[C@H]1C[C@H](c2c[nH]c(=O)o2)C1 (stereo partly drawn) [Compound 455, 5-((1r,3r)-3-(1-((4-chloro-1-methyl-1H-pyrazol-5-yl)methyl)-3-oxoisoindolin-2-yl)cyclobutyl)oxazol-2(3H)-one] | ≥ 5 µM | C (2≥C)
O=C1c2ccccc2C(Cc2ncccc2Br)N1CCNc1c[nH]nn1 (stereo not drawn) [Compound 456, 2-(2-((1H-1,2,3-triazol-4-yl)amino)ethyl)-3-((3-bromopyridin-2-yl)methyl)isoindolin-1-one] | ≥ 5 µM | C (2≥C)
Cn1ncc(Cl)c1CC1c2ccccc2C(=O)N1CC1CCc2[nH]nnc21 (stereo not drawn) [Compound 457, 3-((4-chloro-1-methyl-1H-pyrazol-5-yl)methyl)-2-((1,4,5,6-tetrahydrocyclopenta[d][1,2,3]triazol-4-yl)methyl)isoindolin-1-one] | ≥ 5 µM | C (2≥C)
O=C1c2ccccc2C(Cc2ncccc2Br)N1C/C=C/c1n[nH]c(=O)o1 (stereo not drawn) [Compound 458, (E)-5-(3-(1-((3-bromopyridin-2-yl)methyl)-3-oxoisoindolin-2-yl)prop-1-en-1-yl)-1,3,4-oxadiazol-2(3H)-one] | ≥ 5 µM | B (3≥B>2)
Cn1c(CC2c3ccccc3C(=O)N2CC2CC3(CNC(=O)O3)C2)ccc(Cl)c1=O (stereo not drawn) [Compound 472, 2-((1-((5-chloro-1-methyl-6-oxo-1,6-dihydropyridin-2-yl)methyl)-3-oxoisoindolin-2-yl)methyl)-5-oxa-7-azaspiro[3.4]octan-6-one] | ≥ 5 µM | C (2≥C)
Cn1c(CC2c3ccccc3C(=O)N2CC2CC3(CNC(=O)O3)C2)cccc1=O (stereo not drawn) [Compound 494, 2-((1-((1-methyl-6-oxo-1,6-dihydropyridin-2-yl)methyl)-3-oxoisoindolin-2-yl)methyl)-5-oxa-7-azaspiro[3.4]octan-6-one] | ≥ 5 µM | C (2≥C)
Cn1ncc(Cl)c1CC1c2cc(F)cc(F)c2C(=O)N1CC1CC2(CNC(=O)O2)C1 (stereo not drawn) [Compound 496, 2-((1-((4-chloro-1-methyl-1H-pyrazol-5-yl)methyl)-4,6-difluoro-3-oxoisoindolin-2-yl)methyl)-5-oxa-7-azaspiro[3.4]octan-6-one] | < 0.5 µM | B (3≥B>2)
CN(C)C1CN(c2ccc3c(c2)C(Cc2c(Cl)cnn2C)N(CC2CC4(CNC(=O)O4)C2)C3=O)C1 (stereo not drawn) [Compound 497, 2-((3-((4-chloro-1-methyl-1H-pyrazol-5-yl)methyl)-5-(3-(dimethylamino)azetidin-1-yl)-1-oxoisoindolin-2-yl)methyl)-5-oxa-7-azaspiro[3.4]octan-6-one] | < 0.5 µM | B (3≥B>2)
